Key:
Phakopsora pachyrhizi = assay: Phakopsora test (soya bean)/protective; type: in vivo, Phakopsora pachyrhizi on soya bean; settings: 250 ppm, protective, evaluation 11 days after inoculation
[1] = type: physicochemical; settings: pH 2.7
Procedure: The log P values were measured according to EEC directive 79/831 Annex V.A8 by HPLC (High Performance Liquid Chromatography) on reversed-phase columns (C 18), using the methods below: [α] The LC-MS determination in the acidic range is carried out at pH 2.7 using the mobile phases 0.1% aqueous formic acid and acetonitrile (contains 0.1% formic acid), linear gradient from 10% acetonitrile to 95% acetonitrile

Fusarium graminearum = assay: microbe, parasite or virus in culture; type: cell-based; settings: 168 h, read-out: inhibition of DON/AcDON production
Fusarium proliferatum = assay: microbe, parasite or virus in culture; type: cell-based; settings: 120 h, read-out: inhibition of fumonisin FB1 production
[2] = test system: Abuthilon theophrasti (velvetleaf); assay: Phytoregulatory pre-emergence action, ABUTH; type: in vivo; settings: 320 g of a.i./ha, visual assessment after approx. 3 weeks
Procedure: (§1) Phytoregulatory Pre-Emergence Action Seeds of monocotyledonous or dicotyledonous crop plants are placed in wood-fibre pots in sandy loam and covered with soil. […] After the treatment, the pots are placed in a greenhouse and kept under good growth conditions for the test plants. The visual assessment of the suppression of growth in the test plants is carried out after a trial period of approx. 3 weeks by comparison with untreated controls (phytoregulatory activity in percent: 100% activity=maximum inhibition of plant growth, 0% activity=plant growth like that of an untreated control.)

[3] = test system: Viola tricolor (wild pansy); assay: Phytoregulatory pre-emergence action, VIOTR; type: in vivo; settings: 320 g of a.i./ha, visual assessment after approx. 3 weeks
Procedure: as §1

Brassica napus (rape) = assay: Phytoregulatory pre-emergence action, BRSNW; type: in vivo; settings: 320 g of a.i./ha, visual assessment after approx. 3 weeks
Procedure: as §1

Cochliobolus miyabeanus = assay: Cochliobolus test (rice)/protective; type: in vivo, Cochliobolus miyabeanus on rice; settings: 500 ppm active compound, protective, evaluation 7 days after inoculation
Rhizoctonia solani = assay: Rhizoctonia test (rice)/protective; type: in vivo, Rhizoctonia solani on rice; settings: 500 ppm active compound, protective, evaluation 4 days after inoculation
Procedure: Rhizoctonia Test (Rice)/Protective [table] To produce a suitable preparation of active compound, 1 part by weight of active compound is mixed with the stated amount of solvent, and the concentrate is diluted with water and the stated amount of emulsifier to the desired concentration. To test for protective activity, young rice plants are sprayed with the preparation of active compound at the stated application rate. 1 day after the treatment, the plants are inoculated with hyphae of Rhizoctonia solani. The plants are then placed in a greenhouse at a relative atmospheric humidity of 100% and a temperature of 25° C.

Pyricularia oryzae = type: in vivo, Pyricularia oryzae on rice; settings: 500 ppm active compound, protective, rice, evaluation 7 days after inoculation
[4] = test system: Setaria viridis (green foxtail); assay: Phytoregulatory pre-emergence action, SETVI; type: in vivo; settings: 320 g of a.i./ha, visual assessment after approx. 3 weeks
Procedure: as §1

[5] = test system: Triticum aestivum (common wheat); assay: Phytoregulatory pre-emergence action, TRZAS; type: in vivo; settings: 320 g of a.i./ha, visual assessment after approx. 3 weeks
Procedure: as §1

Row | SMILES | logP [1] | also measured
1 | CC(C)(C)C(O)(COc1ccc(Br)cc1F)Cn1cncn1 (stereo not drawn) [Compound 8] |  | efficacy (Phakopsora pachyrhizi): ≥ 80%
2 | CC(C)(C)C(O)(COc1ccc(Br)c(F)c1F)Cn1cncn1 (stereo not drawn) [Compound 34] | logP 3.29 ^[a], [M]^+ = 392/394 | 
3 | CC(C)(C)C(O)(COc1c(F)cc(Br)cc1Cl)Cn1cncn1 (stereo not drawn) [Compound 28] | logP 3.76 ^[a], [M]^+ =407.9/411 | 
4 | CC(C)(C)C(O)(COc1ccc(Br)c(F)c1)Cn1cncn1 (stereo not drawn) [Compound 30] | logP 3.13 ^[a], [M]^+ = 374/376 | 
5 | CC(C)(C)C(O)(COc1ccc(Br)c(F)c1F)c1cncnc1 (stereo not drawn) [Compound 13] |  | inhibition at 50 µM (Fusarium graminearum): > 80%; inhibition at 50 µM (Fusarium proliferatum): > 80%
6 | CC1(C(O)(COc2ccc(Br)c(F)c2F)Cn2cncn2)CC1 (stereo not drawn) [Compound 44] | logP 2.95 ^[a], [M]^+ = 390/391 | 
7 | Cc1cc(OCC(O)(Cn2cncn2)C2(C)CC2)cc(C)c1Br (stereo not drawn) [Compound 39] | logP 3.5 ^[a], [M]^+ = 382/384 | 
8 | CC(C)(C)C(O)(COc1cc(F)c(Br)cc1F)Cn1cncn1 (stereo not drawn) [Compound 29] | logP 3.21 ^[a], [M]^+ = 392/394 | 
9 | Cc1cc(Br)ccc1OCC(O)(c1cncnc1)C(C)(C)C (stereo not drawn) [Compound 12] |  | Inhibition of the growth of useful or harmful plants in %, ABUTH [2]: 80%; Inhibition of the growth of useful or harmful plants in %, VIOTR [3]: 90%; Inhibition of the growth of useful or harmful plants in %, BRSNW (Brassica napus (rape)): 60%; efficacy (Cochliobolus miyabeanus): ≥ 80%; inhibition at 50 µM (Fusarium graminearum): > 80%; efficacy (Rhizoctonia solani): ≥ 80%; inhibition at 50 µM (Fusarium proliferatum): > 80%; efficacy (Pyricularia oryzae): ≥ 80%; Inhibition of the growth of useful or harmful plants in %, SETVI [4]: 90%; Inhibition of the growth of useful or harmful plants in %, TRZAS [5]: 50%
10 | Cc1cc(Br)cc(Cl)c1OCC(O)(Cn1cncn1)C(C)(C)C (stereo not drawn) [Compound 25] | logP 3.99 ^[a], [M]^+ = 403.9/407 | 
11 | Cc1cc(OCC(O)(Cn2cncn2)C(C)(C)C)c(C)cc1I (stereo not drawn) [Compound 36] | logP 4.15 ^[a], [M]^+ = 430/432 | 
12 | Cc1cc(I)ccc1OCC(O)(Cn1cncn1)C1(C)CC1 (stereo not drawn) [Compound 47] | logP 3.37 ^[a], [M]^+ = 414/416 | 
13 | CC1(C(O)(COc2cc(F)c(Br)c(F)c2)Cn2cncn2)CC1 (stereo not drawn) [Compound 43] | logP 2.95 ^[a], [M]^+ = 390/391 | 
14 | CC(C)(C)C(O)(COc1ccc(Br)c(C(F)(F)F)c1)Cn1cncn1 (stereo not drawn) [Compound 32] | logP 3.59 ^[a], [M]^+ = 424/426 | 
15 | Cc1cc(Br)cc(C)c1OCC(O)(Cn1cncn1)C(C)(C)C (stereo not drawn) [Compound 24] | logP 3.85 ^[a], [M]^+ = 384/386 | 
16 | COc1cc(OCC(O)(Cn2cncn2)C2(C)CC2)ccc1Br (stereo not drawn) [Compound 42] | logP 2.67 ^[a], [M]^+ = 384/386 | 
17 | CC1(C(O)(COc2ccc(Br)cc2Cl)Cn2cncn2)CC1 (stereo not drawn) [Compound 41] | logP 3.22 ^[a], [M]^+ = 388/391 | 

Row | SMILES | logP [1] | also measured
18 | Cc1cc(OCC(O)(Cn2cncn2)C2(C)CC2)cc(C)c1I (stereo not drawn) [Compound 46] | logP 3.68 ^[a], [M]^+ = 428/430 | 
19 | Cc1cc(Br)ccc1OCC(O)(Cn1cncn1)C(C)(C)C (stereo not drawn) [Compound 22] | logP 3.5 ^[a], [M]^+ = 370/372 | 
20 | Cc1cc(I)cc(C)c1OCC(O)(Cn1cncn1)C(C)(C)C (stereo not drawn) [Compound 38] | logP 4.04 ^[a], [M]^+ = 430/432 | 
21 | Cc1cc(OCC(O)(Cn2cncn2)C2(C)CC2)c(C)cc1I (stereo not drawn) [Compound 45] | logP 3.76 ^[a], [M]^+ = 428/430 | 
22 | CC(C)(C)C(O)(COc1cc(F)c(Br)c(F)c1)Cn1cncn1 (stereo not drawn) [Compound 33] | logP 3.25 ^[a], [M]^+ = 392/394 | 
23 | CC(C)(C)C(O)(COc1ccc(Br)cc1Cl)Cn1cncn1 (stereo not drawn) [Compound 26] | logP 3.59 ^[a], [M]^+ = 389.9/393 | 
24 | Cc1cc(OCC(O)(Cn2cncn2)C(C)(C)C)cc(C)c1I (stereo not drawn) [Compound 37] | logP 4.04 ^[a], [M]^+ = 430/432 | 
25 | CC(C)(C)C(O)(COc1c(F)cc(Br)cc1F)Cn1cncn1 (stereo not drawn) [Compound 31] | logP 3.37 ^[a], [M]^+ = 392/394 | 
26 | COc1cc(OCC(O)(Cn2cncn2)C(C)(C)C)ccc1Br (stereo not drawn) [Compound 27] | logP 2.92 ^[a], [M]^+ = 386/388 | 
27 | CC(C)(C)C(O)(COc1c(Cl)cc(Br)cc1Cl)Cn1cncn1 (stereo not drawn) [Compound 21] | logP 4.04 ^[a], [M]^+ = 423.9/426 | 
28 | COc1cc(Br)ccc1OCC(O)(Cn1cncn1)C(C)(C)C (stereo not drawn) [Compound 20] | logP 3.09 ^[a], [M]^+ = 386/388 | 
29 | CC(C)(C)C(O)(COc1ccc(Br)c(OC(F)(F)F)c1)Cn1cncn1 (stereo not drawn) [Compound 35] | logP 3.72^[a], [M]^+ = 440/441 | 
30 | Cc1cc(OCC(O)(Cn2cncn2)C2(C)CC2)ccc1Br (stereo not drawn) [Compound 48] | logP 3.1 ^[a], [M]^+ = 368/369 | 
31 | CC(C)(C)C(O)(COc1ccc(Cl)cc1Cl)c1cncnc1 (stereo not drawn) [EP-A 0 028 755, Example 5, reference compound] |  | Inhibition of the growth of useful or harmful plants in %, ABUTH [2]: 40%; Inhibition of the growth of useful or harmful plants in %, VIOTR [3]: 90%; Inhibition of the growth of useful or harmful plants in %, BRSNW (Brassica napus (rape)): 60%; Inhibition of the growth of useful or harmful plants in %, SETVI [4]: 80%; Inhibition of the growth of useful or harmful plants in %, TRZAS [5]: 40%
32 | Cc1cc(Br)cc(Cl)c1OCC(O)(Cn1cncn1)C1(C)CC1 (stereo not drawn) [Compound 40] | logP 3.68 ^[a], [M]^+ = 402/405 | 
33 | Cc1cc(OCC(O)(Cn2cncn2)C(C)(C)C)cc(C)c1Br (stereo not drawn) [Compound 23] | logP 3.85 ^[a], [M]^+ = 384/386 | 
34 | Cc1cc(OCC(O)(Cn2cncn2)C(C)(C)C)ccc1Br (stereo not drawn) [Compound 19] | logP 3.41 ^[a], [M]^+ = 370/372 | 
